The subject of series [1] is E1, UbcH5c, UbcH7, HOIL-1L, RNF144A, HHARI, TRIAD3A RBR domains, NEDD4L, E6AP, OTULIN, CYLD-1. Kind of series: LC-MS-based enzyme counter screen. It is filed as binding. Conditions: 2-fold excess, positive control. On the procedure: 0.1% formic acid in water. The samples were analyzed on a Q Exactive MS (Thermo Fisher) coupled to an Easy-nLC chromatographic system (Thermo Fisher) with a nano ESI source (Thermo Fisher). Each sample (2 µL) was injected and trapped on a C18 Acclaim pepMap 100 enrichment column (75 µm id × 2 cm, 3 µm nanoviper, Thermo Fisher). The samples were transferred to a C18 Acclaim PepMap RSLC analytical column (75 µm id × 15 cm, 2 µm, Thermo Fisher) at 300 nL/min. Mobile phase A (0.1% Formic acid in water, v/v); mobile phase B (0.1% […]
min (70-95% B), 56-61 min (95% B). The nanospray ionisation source was operated in the positive mode with spray voltage set at 2 kV, and heated capillary at 250 °C. The Q Exactive was operated in the data dependent mode and the top 15 most intense ions were subjected to HCD fragmentation with normalised collision energy set at 26%. The MS1 scans were performed at a resolution of 70 000 from 400-1600 m/z, automatic gain control (AGC) value 3 e6, maximum injection time 100 ms. […]
Compounds (1) and (5) were screened against E1, the E2s UbcH5c and UbcH7, the RBR domains of the E3 ligases HOIP, HOIL-1L, RNF144A, HHARI and TRIAD3A, the HECT E3 ligases NEDD4L and E6AP, and the DUBs OTULIN and CYLD-1. […] The samples were analyzed after 0.5 and 24 h incubation. […]
In general terms: The purpose of a counterscreen is to sort out artefacts and off-target activity.

Series [2] concerns untransfected HEK293T cells. Kind of series: CellTiter-Glo Luminescent cell viability assay, untransfected cells. Conditions: 17 h. It is filed as cell-based. On the procedure:
Separately, untransfected HEK293T cells were incubated with compounds (1), (11a) and (17) for 17 h, and the cell viability determined using the CellTiter-Glo® Luminescent Cell Viability Assay as described above. Average data from three independent experiments each done in triplicate were plotted as percentage cell viability normalized to DMSO control with GraFit (v.7) against different compound concentrations and fitted using the IC50-4 parameter logistic (Supplementary […]
Supplementary Figure S14. A-D) Uncropped concentration-response graphs (A and D from Figure 6D) and Western blots from the NF-κB reporter and cell viability assays. HEK293T cells transfected with His6-tagged HOIP, HOIL-1L and SHARPIN (H/H/S) were treated with compounds (11a) and (17) for 17 h and the relative NF-κB activity and cell viability was plotted against compound concentration. E) Cell viability of untransfected HEK293T cells treated with compound (1), (11a) and (17) for 17 h. The observed cell toxicity for compound (1) was in line that previously […]
(1 picture or pasted object on this page, not shown here)

The structures appear in SMILES notation.

Turning to `Cc1ccc(S(=O)(=O)/C=C/C#N)cc1` [Compound 1, BAY 11–7082, reference compound], the “labeling of counter screen proteins” value in series [1] is “rapid and extensive labeling for most proteins”. Besides, in series [2], the cell viability result is on record as “cell toxicity”.

The values above are taken from paper PMC6383986, “Fragment-Based Covalent Ligand Screening Enables Rapid Discovery of Inhibitors for the RBR E3 Ubiquitin Ligase HOIP” (Journal of the American Chemical Society, 2019).
